The target of data set [1] is T1, dopamine D2 receptors (Mus musculus, UniProt P61168).
T1 construct: from tissue; host or cells: mouse brain in vivo (striatum, thalamus, midbrain)
The data set is described as follows: microSPECT/microCT imaging of mouse brain. The data set is classed as in vivo. The following applies: 5 mCi injected, striatum, thalamus and midbrain. The procedure:
FIG. 9 is a view showing a combined image of a mouse brain obtained through microSPECT and microCT. As shown in the figure, a combined image of a mouse brain is obtained through microSPECT and microCT, where 5 mCi of I-123-Epidepride is injected into the mouse brain.

Data set [2] is described as follows: Lipophilicity, octanol/PBS partition with gamma-counter. The data set is classed as physicochemical. The procedure: For analyzing lipophilicity of the I-123-Epidepride, a solution of phosphate buffer saline (PBS) is used with lipophilic octanol. After 50 μl of I-123-Epidepride, 0.5 ml of PBS and 0.5 ml of octanol are mixed, a diluted octanol solution is obtained with an aqueous solution which has an equal weight as the octanol solution and then is processed with a gamma-counter. Therein, the lipophilicity of the I-123-Epidepride is expressed as a value of log P and log P is obtained by the following formula: Log P=Log {(Decay corrected activity)organic layer×10/(Decay corrected activity)aqueous layer}.
FIG. 6 and FIG. 7 are views showing lipophilicity and labeling results. […] Besides, the labeling method according to the present disclosure obtains 20 mCi each time for three times with an average radiochemistry purity of 99.55±0.8% and an average yield of 74.83±2.4% (shown in FIG. 7).

Data set [3] is described as follows: Stability after standing 24 hours, radiochemistry purity measured. The data set is classed as physicochemical. The following applies: stayed still for 24 hours. The procedure:
FIG. 8A and FIG. 8B are views showing stability at 0 hour and 24 hour. As shown in the figures, after the I-123-Epidepride is stayed still for 24 hours, its radiochemistry purity is measured. As shown by the liquid peaks, [32], the stability is higher than 90%.

For data set [4], the target named is dopamine D2 receptors (Homo sapiens, UniProt P14416). The following applies: imaging agent for dopamine D2 receptors; cited from earlier work.
dopamine D2 receptors (Homo sapiens, UniProt P14416), sequence (P14416 whole entry): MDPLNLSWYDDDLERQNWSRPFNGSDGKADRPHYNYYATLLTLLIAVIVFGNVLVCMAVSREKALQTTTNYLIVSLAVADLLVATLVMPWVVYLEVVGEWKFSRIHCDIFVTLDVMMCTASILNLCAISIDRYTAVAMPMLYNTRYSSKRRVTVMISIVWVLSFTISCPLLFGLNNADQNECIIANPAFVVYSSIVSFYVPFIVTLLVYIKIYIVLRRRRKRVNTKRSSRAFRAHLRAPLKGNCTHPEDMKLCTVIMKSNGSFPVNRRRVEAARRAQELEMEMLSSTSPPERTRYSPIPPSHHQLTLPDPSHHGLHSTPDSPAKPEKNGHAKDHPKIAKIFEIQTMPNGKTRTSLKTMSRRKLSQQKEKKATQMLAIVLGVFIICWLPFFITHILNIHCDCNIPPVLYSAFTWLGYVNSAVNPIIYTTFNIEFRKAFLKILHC

T1 sequence (P61168 whole entry): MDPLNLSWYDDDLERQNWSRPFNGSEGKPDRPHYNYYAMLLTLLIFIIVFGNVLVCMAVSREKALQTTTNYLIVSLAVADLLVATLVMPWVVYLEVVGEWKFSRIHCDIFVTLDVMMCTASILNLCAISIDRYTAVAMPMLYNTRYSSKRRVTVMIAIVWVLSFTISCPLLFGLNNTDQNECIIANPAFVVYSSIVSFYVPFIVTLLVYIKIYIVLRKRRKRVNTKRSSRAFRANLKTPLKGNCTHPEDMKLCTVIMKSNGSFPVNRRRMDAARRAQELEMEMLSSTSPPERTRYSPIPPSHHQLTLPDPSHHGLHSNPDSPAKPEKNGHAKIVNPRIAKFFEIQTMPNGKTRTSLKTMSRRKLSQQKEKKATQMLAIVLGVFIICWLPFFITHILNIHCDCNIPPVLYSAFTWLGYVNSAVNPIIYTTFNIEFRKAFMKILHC

As for `CCN1CCC[C@H]1CNC(=O)c1cc(I)cc(OC)c1OC` [I-123-Epidepride], the “brain uptake in combined microSPECT/microCT image” value on dopamine D2 receptors [1] was “obvious absorption is found in striatum [41], thalamus and midbrain [42]”. For the same molecule, in data set [2], the “log P value” came to 1.76±0.04. In addition, the “stability (radiochemistry purity after 24 hours)” value in data set [3] is given as “higher than 90%”.

Take `CCN1CCC[C@H]1CNC(=O)c1c(OC)ccc(I)c1O` [IBZM]: the Kd on dopamine D2 receptors [4] is 0.43 nM.

The record behind these values is US20120264949A1, “Method of Labeling Dopamine D2 Receptor Using Radiosynthesized Ligand of Iodine-123-Epidepride” (ATOMIC ENERGY COUNCIL-INSTITUTE OF NUCLEAR ENERGY RESEARCH, priority 2011, published 2012).
